Legend:
Type in all cases: biochemical
MtMetAP1c [1] = biological target: T1, MtMetAP1c (Mycobacterium tuberculosis, UniProt P9WK19); details: room temperature; metal not given
T1 construct: gene map

HsMetAP1b [2] = biological target: T2, HsMetAP1b (Homo sapiens, UniProt P53582); experiment: fluorescence, substrate hydrolysis; details: room temperature; metal not given
T2 construct: gene METAP1; expressed in E. coli and purified

EfMetAP1b [3] = biological target: T3, EfMetAP1b (Enterococcus faecalis, UniProt Q832M5); experiment: fluorescence, substrate hydrolysis; details: room temperature; metal not given
T3 construct: gene map; expressed in E. coli and purified
T3 sequence (Q832M5 1-254): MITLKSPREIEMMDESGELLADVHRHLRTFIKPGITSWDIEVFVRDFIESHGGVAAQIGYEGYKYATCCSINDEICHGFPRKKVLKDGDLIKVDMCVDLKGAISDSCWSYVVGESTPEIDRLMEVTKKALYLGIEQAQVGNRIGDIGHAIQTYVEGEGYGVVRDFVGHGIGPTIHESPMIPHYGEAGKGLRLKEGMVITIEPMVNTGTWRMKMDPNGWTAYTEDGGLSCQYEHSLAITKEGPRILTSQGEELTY

HsMetAP1b [4] = biological target: T2, HsMetAP1b; experiment: fluorescence, hydrolysis of methionyl aminomethylcoumarin
EfMetAP1b [5] = biological target: T3, EfMetAP1b; experiment: as above
MtMetAP1c [6] = biological target: T1, MtMetAP1c; experiment: as above

T1 sequence (P9WK19 whole entry, looked up): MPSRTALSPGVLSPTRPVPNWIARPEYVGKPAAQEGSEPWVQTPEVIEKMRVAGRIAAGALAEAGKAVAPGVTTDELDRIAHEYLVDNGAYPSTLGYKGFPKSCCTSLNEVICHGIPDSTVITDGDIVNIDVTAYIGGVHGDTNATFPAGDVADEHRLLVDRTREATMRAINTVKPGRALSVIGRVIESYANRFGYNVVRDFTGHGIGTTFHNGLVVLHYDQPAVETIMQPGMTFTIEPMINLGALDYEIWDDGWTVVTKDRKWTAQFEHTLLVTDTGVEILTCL

SMILES	fluorescence, substrate hydrolysis (MtMetAP1c [1])	fluorescence, substrate hydrolysis (HsMetAP1b [2])	fluorescence, substrate hydrolysis (EfMetAP1b [3])	inhibition at 50 µM (HsMetAP1b [4]) [%]	inhibition at 50 µM (EfMetAP1b [5]) [%]	inhibition at 50 µM (MtMetAP1c [6]) [%]
CSCC[C@H](N)C(=O)Nc1ccc2c(C)cc(=O)oc2c1 [methionyl aminomethylcoumarin]	enzymatic activity was monitored by fluorescence readings following hydrolysis of the fluorogenic substrate, methionyl aminomethylcoumarin	enzymatic activity was monitored by fluorescence readings following hydrolysis of the fluorogenic substrate, methionyl aminomethylcoumarin	enzymatic activity was monitored by fluorescence readings following hydrolysis of the fluorogenic substrate, methionyl aminomethylcoumarin	–	–	–
CCCCCCCCCCCCCC(=O)O[C@H]1CC[C@H](NC(=O)[C@H](OC)[C@H](O)[C@@H](O)[C@H](O)/C=C/C(C)C)C(=O)N(C)C1 [F12, bengamide B]	–	–	–	84.7	83.3	72.8

— PMC6779907, “Bengamides display potent activity against drug-resistant Mycobacterium tuberculosis” (Scientific Reports, 2019)
